Laboratory results as given in patent US20140242673A1, “CHEMICALLY DEFINED CULTURE MEDIUM FOR FERMENTATION TO PRODUCE SUCCINIC ACID AND APPLICATION THEREOF” (NANJING UNIVERSITY OF TECHNOLOGY, priority 2011, published 2014).

Tests used:
Type in all cases: cell-based
[1] = system: Escherichia coli; experiment: Production of succinic acid by fermentation at different biotin concentrations
Protocol: This preferred embodiment reduces biotin consumption in the culture medium. Particular method of change of fermentation culture medium is described below.
Germ seed: Escherichia coli (strain from patent of publication No. CN102154339A)
Cultivation in fermenter: transfer activated seed liquid and sterilized glucose into fermenter; inoculum size shall be 5% (volume ratio); stirring speed shall be 200 rpm; allow fermentation at 37° C.; amount of CO2 connected shall be 0.25 vvm.
Conventional compositions of fermentation culture medium (g/L): 30 of glucose (separately sterilized), 2 of disodium fumarate, 3 of KH2PO4, 0.3 of MgCl2.6H2O, 0.23 of CaCl2, and 1 of NaCl; sterilized at pH of 7.0 and 121° C. for 15 min; sodium carbonate adopted as neutralizing agent.
In a 100 mL serum bottle, add 15 g/L of Na2HPO4, 4 g/L of KH2PO4, 13.1 mL of water, and 1 mL of Actinobacillus succinogenes NJ113 (CGMCC 1716) seed liquid after being washed by sterilized water; sterilize at 121° C. for 15 min, and then add 4 mL of reserved mixed liquid containing corresponding concentrations of amino acids, 0.5 mL of mixed liquid of vitamins including niacin and biotin so that […], 1 mL of reserved mixed liquid containing all metal salts being tested, and 0.4 mL of sterilized 500 g/L glucose solution, so that total volume after inoculation reaches 20 mL and glucose concentration is 10 g/L.
Fermentation experiment of above culture media containing different concentrations of biotin has been carried out under the same fermentation conditions as preferred embodiment 1:
According to identical germ seed, fermentation conditions, and experiment method of this preferred embodiment, biotin consumption in the culture medium is further lowered, to concentrations of 50 μg/L, 100 μg/L, 150 μg/L, 200 μg/L, and 300 μg/L respectively, for fermentation experiment: […]

[2] = system: Actinobacillus succinogenes NJ113 (CGMCC 1716); experiment: Fermentation in defined medium with one growth factor missing (serum bottle, 30 h); conditions: for bacterial growth / glucose remaining / succinic acid production: culture medium lacks the named growth factor; for OD660 / Residual glucose / Succinic acid: medium lacking the named growth factor, 30 h, 37° C., 200 rpm
Description: To investigate the effect of critical factors on succinic acid production described by this invention can use any microorganism germ seed used for production of succinic acid using anaerobic fermentation in existing technology. This preferred embodiment uses NJ113 (Actinobacillus succinogenes NJ113), which has been patented (authorized publication No.: CN100537744C).
First, significance and effect of various amino acids, vitamins, and metallic microelements on bacterial growth and metabolism has been investigated on defined medium. Particular operation and cultivation conditions are as follows:
(1) Preparation of amino acid mixed liquids: Remove each one type of amino acid from the 18 types of amino acid being tested, to prepare a mixed liquid of remaining 17 types of amino acid of suitable concentration (suitable concentration refers to the concentration at which the substance of lowest solubility is completely dissolved), as well as a mixed liquid containing all 18 types of amino acid. Quantity of each such liquid is 100 mL. After filtration sterilization by 0.22 μm sterile filtering head, keep these liquids for later use. Refer to Attached Table 1 for contents of various amino acids in the culture medium.
(2) Preparation of vitamin mixed liquids: Using the method in […], remove each one type of vitamin from the 10 types of vitamin being tested, to prepare a mixed liquid of remaining 9 types of vitamin of suitable concentration (suitable concentration refers to the concentration at which the substance of lowest solubility is completely dissolved), as well as a mixed liquid containing all 10 types of vitamin. Quantity of each such liquid is 100 mL. After filtration sterilization by 0.22 μm sterile filtering head, keep these liquids for later use. Refer to Attached Table 1 for contents of various vitamins in the culture medium.
(3) Preparation of metallic microelement mixed liquids: Using the method in step (1), remove each one type of metal salt from the 12 types of metal salt being tested, to prepare a mixed liquid of remaining 11 types of metal salt of suitable concentration (suitable concentration refers to the concentration at which the substance of lowest solubility is completely dissolved), as well as a mixed liquid containing all 12 types of metal salt. Quantity of each such liquid is 100 mL. After sterilization at 121° C. for 15 min, keep these liquids for later use. Refer to Attached Table 1 for contents of various metal salts in the culture medium.
Conventional compositions of fermentation culture medium (g/L): 90 of glucose (separately sterilized), 1 of disodium fumarate, 2 of KH2PO4, 0.2 of MgCl2.6H2O, 0.2 of CaCl2, and 1 of NaCl; sterilized at pH of 7.0 and 121° C. for 15 min; sodium carbonate adopted as neutralizing agent.
In a 100 mL serum bottle, add […] of fermentation culture medium and 1 mL of Actinobacillus succinogenes NJ113 (CGMCC 1716) seed liquid that has been washed by sterilized water; sterilize at 121° C. for 15 min; and then add 4 mL of reserved mixed liquid not containing a type of amino acid, 0.5 mL of reserved mixed liquid containing all vitamins being tested, 1 mL of reserved mixed liquid containing all types of metal salt being tested, and […] of sterilized 600 g/L glucose, so that after inoculation, the total volume reaches 20 mL and glucose concentration is 30 g/L.
Use the same method to prepare fermentation culture medium that lacks a certain type of vitamin or metal salt.
Carry out fermentation of above culture media under the following conditions:
At mechanical shaker speed of 200 rpm and 37° C., allow fermentation for 30 h and then detect content of succinic acid in the fermentation liquid.

[3] = system: Mannheimia succiniciproducens MBEL55E; experiment: Production of succinic acid by fermentation with biotin replaced by 5-ALA
Protocol: In this preferred embodiment, biotin (10˜20 mg/L) in culture medium is replaced by 0.1˜1 mg/L of 5-ALA, for fermentation experiment.
The microorganism adopts large Mannheimia succiniciproducens MBEL55E (strain from patents of publication No. EP2096177 and No. EP2199304).
Cultivation in fermenter: transfer activated seed liquid and sterilized glucose into fermenter; inoculum size shall be 7% (volume ratio); stirring speed shall be 200 rpm; allow fermentation at 37° C.; amount of CO2 connected shall be 0.25 vvm.
Conventional compositions of fermentation culture medium (g/L): 10 of mixed carbohydrate obtained from pre-treated stalk (measured total carbohydrate concentration), 3 of disodium fumarate, 4 of KH2PO4, 0.4 of MgCl2.6H2O, 0.4 of CaCl2, and 2 of NaCl; sterilize at pH value of 7.0 and 121° C. for 15 min; ammonia is adopted as neutralizing agent.

[4] = 5-ALA 0.1~1 mg/L replacing biotin

Q: `O=C(O)CCCC[C@@H]1SC[C@@H]2NC(=O)N[C@@H]21` [Biotin, biotin] was tested. Which Residual glucose ([1]; biotin 50 μg/L) did it give?
A: 23 g/L

Q: What about the Succinic acid ([1]; biotin 50 μg/L) of the same molecule?
A: 1.6 g/L

Q: What about the Residual glucose ([1]; biotin 100 μg/L) of the same molecule?
A: 2.2 g/L

Q: And the Succinic acid ([1]; biotin 100 μg/L)?
A: 15.8 g/L

Q: And the Residual glucose ([1]; biotin 150 μg/L)?
A: 2.6 g/L

Q: What about the Succinic acid ([1]; biotin 150 μg/L) of the same molecule?
A: 16.2 g/L

Q: And the Residual glucose ([1]; biotin 200 μg/L)?
A: 2.5 g/L

Q: What about the Succinic acid ([1]; biotin 200 μg/L) of the same molecule?
A: 16.8 g/L

Q: And the Residual glucose ([1]; biotin 300 μg/L)?
A: 2.8 g/L

Q: And the Succinic acid ([1]; biotin 300 μg/L)?
A: 16.7 g/L

Q: And the Residual glucose ([1]; biotin 2 mg/L)?
A: 0 g/L

Q: And the Succinic acid ([1]; biotin 2 mg/L)?
A: 18.8 g/L

Q: And the Residual glucose ([1]; biotin 4 mg/L)?
A: 0 g/L

Q: And the Succinic acid ([1]; biotin 4 mg/L)?
A: 18.6 g/L

Q: And the Residual glucose ([1]; biotin 6 mg/L)?
A: 0 g/L

Q: What about the Succinic acid ([1]; biotin 6 mg/L) of the same molecule?
A: 17.7 g/L

Q: What about the Residual glucose ([1]; biotin 8 mg/L) of the same molecule?
A: 0 g/L

Q: And the Succinic acid ([1]; biotin 8 mg/L)?
A: 19.4 g/L

Q: What about the Residual glucose ([1]; biotin 10 mg/L) of the same molecule?
A: 0 g/L

Q: What about the Succinic acid ([1]; biotin 10 mg/L) of the same molecule?
A: 18.7 g/L

Q: And the Residual glucose ([1]; biotin 20 mg/L)?
A: 0 g/L

Q: What about the Succinic acid ([1]; biotin 20 mg/L) of the same molecule?
A: 18.5 g/L

Q: What about the bacterial growth [2] of the same molecule?
A: relatively poor

Q: And the glucose remaining [2]?
A: large amount of glucose remains

Q: What about the succinic acid production [2] of the same molecule?
A: very low

Q: And the OD660 [2]?
A: 0.3

Q: What about the Residual glucose [2] of the same molecule?
A: 6.9 g/L

Q: What about the Succinic acid [2] of the same molecule?
A: 0.7 g/L

Q: How did the bacterial growth [2] turn out when `O=C(O)c1cccnc1` [Niacin] was run?
A: relatively poor

Q: What about the glucose remaining [2] of the same molecule?
A: large amount of glucose remains

Q: And the succinic acid production [2]?
A: very low

Q: And the OD660 [2]?
A: 0.2

Q: And the Residual glucose [2]?
A: 5.6 g/L

Q: And the Succinic acid [2]?
A: 0.1 g/L

Q: With `CSCC[C@H](N)C(=O)O` [Methionine] as the molecule, how does the bacterial growth [2] read?
A: relatively poor

Q: And the glucose remaining [2]?
A: large amount of glucose remains

Q: And the succinic acid production [2]?
A: very low

Q: And the OD660 [2]?
A: 0.6

Q: What about the Residual glucose [2] of the same molecule?
A: 4.3 g/L

Q: What about the Succinic acid [2] of the same molecule?
A: 1.3 g/L

Q: Which results are given for `NCC(=O)CCC(=O)O` [5-ALA, 5-aminolevulinate]?
A: Residual glucose [3, 4]: 3.4 g/L; Succinic acid [3, 4]: 15.6 ± 0.2 g/L; output of succinic acid compared with biotin ([3]; biotin completely replaced by 5-ALA): can realize the highest output of succinic acid that can be obtained using biotin

Q: What does the source list for `N[C@@H](CCC(=O)O)C(=O)O` [Glutamic acid]?
A: bacterial growth [2]: relatively poor; glucose remaining [2]: large amount of glucose remains; succinic acid production [2]: very low; OD660 [2]: 0.4; Residual glucose [2]: 8.1 g/L; Succinic acid [2]: 0.5 g/L
